According to publication PMC3615554 (Journal of biomolecular screening, 2012):
Where two headings read alike, the source gives them in different places.

Key:
[1] = system: A549-EGFRB cells; experiment: EGFRB assay, nuclei count readout; assay type: cell-based; conditions: for HTS % inhibition at 10 μM Nuclei count: pilot screen, 10 μM compound, average of duplicates; for inhibition at 10 µM: read-out: HTS % inhibition at 10 μM Nuclei count
[2] = system: EGFR activation (granule formation) in A549-EGFRB cells; experiment: EGFRB assay, granule count readout; assay type: cell-based; conditions: for IC50 / EC50: read-out: IC50 or EC50 (nM) Granule count; for inhibition at 10 µM: read-out: HTS % inhibition at 10 μM Granule count
[3] = target: recombinant EGFR kinase; conditions: read-out: Reported IC50 toward recombinant EGFR kinase; cited from earlier work
[4] = target: EGFR kinase (Homo sapiens, UniProt P00533); experiment: Luminescence ADP production kinase assay, EGFR; assay type: biochemical; conditions: for Luminescence ADP kinase assay IC50 EGFR: 50 nM enzyme, 200 μM ATP, low limit 10 nM, * = partial inhibition
[5] = target: SRC kinase (Homo sapiens, UniProt P12931); experiment: Luminescence ADP production kinase assay, SRC; assay type: biochemical; conditions: for Luminescence ADP kinase assay IC50 SRC: 50 nM enzyme, 200 μM ATP, * = partial inhibition
[6] = target: VEGFR1 kinase (Homo sapiens, UniProt P17948); experiment: Luminescence ADP production kinase assay, VEGFR1; conditions: for Luminescence ADP kinase assay IC50 VEGFR1: 50 nM enzyme, 200 μM ATP, * = partial inhibition
[7] = target: ABL kinase (Homo sapiens, UniProt P00519); experiment: Luminescence ADP production kinase assay, ABL; assay type: biochemical; conditions: for Luminescence ADP kinase assay IC50 ABL: 50 nM enzyme, 200 μM ATP, * = partial inhibition
[8] = system: A549 cells (wild type EGFR); experiment: Alamar Blue viability assay, A549; assay type: cell-based; conditions: for IC50: Homo sapiens, A549, 120 h, read-out: Alamar Blue viability assay IC50 A549; for Alamar Blue viability assay IC50 A549: 120 hours incubation, * = partial inhibition
[9] = system: HCC4011 cells (L858R EGFR mutation); experiment: Alamar Blue viability assay, HCC4011; assay type: cell-based, human; conditions: for IC50: Homo sapiens, HCC4011, 120 h, read-out: Alamar Blue viability assay IC50 HCC4011; for Alamar Blue viability assay IC50 HCC4011: 120 hours incubation, * = partial inhibition
[10] = system: H3255 cells (L858R EGFR mutation); experiment: Alamar Blue viability assay, H3255; assay type: cell-based, human; conditions: for IC50: Homo sapiens, NCI-H3255, 120 h, read-out: Alamar Blue viability assay IC50 H3255; for Alamar Blue viability assay IC50 H3255: 120 hours incubation, * = partial inhibition
[11] = system: H2030 cells (wild type EGFR); experiment: Alamar Blue viability assay, H2030; assay type: cell-based; conditions: for IC50: Homo sapiens, NCI-H2030, 120 h, read-out: Alamar Blue viability assay IC50 H2030; for Alamar Blue viability assay IC50 H2030: 120 hours incubation, * = partial inhibition
[12] = inhibitors, dose response up to 10 μM, N.E. = no effect, * = partial inhibition
[13] = inhibitors, dose response up to 10 μM, ±standard deviation, N.E. = no effect
[14] = activators, dose response up to 10 μM, N.E. = no effect

Sequence of EGFR kinase (P00533 25-1210): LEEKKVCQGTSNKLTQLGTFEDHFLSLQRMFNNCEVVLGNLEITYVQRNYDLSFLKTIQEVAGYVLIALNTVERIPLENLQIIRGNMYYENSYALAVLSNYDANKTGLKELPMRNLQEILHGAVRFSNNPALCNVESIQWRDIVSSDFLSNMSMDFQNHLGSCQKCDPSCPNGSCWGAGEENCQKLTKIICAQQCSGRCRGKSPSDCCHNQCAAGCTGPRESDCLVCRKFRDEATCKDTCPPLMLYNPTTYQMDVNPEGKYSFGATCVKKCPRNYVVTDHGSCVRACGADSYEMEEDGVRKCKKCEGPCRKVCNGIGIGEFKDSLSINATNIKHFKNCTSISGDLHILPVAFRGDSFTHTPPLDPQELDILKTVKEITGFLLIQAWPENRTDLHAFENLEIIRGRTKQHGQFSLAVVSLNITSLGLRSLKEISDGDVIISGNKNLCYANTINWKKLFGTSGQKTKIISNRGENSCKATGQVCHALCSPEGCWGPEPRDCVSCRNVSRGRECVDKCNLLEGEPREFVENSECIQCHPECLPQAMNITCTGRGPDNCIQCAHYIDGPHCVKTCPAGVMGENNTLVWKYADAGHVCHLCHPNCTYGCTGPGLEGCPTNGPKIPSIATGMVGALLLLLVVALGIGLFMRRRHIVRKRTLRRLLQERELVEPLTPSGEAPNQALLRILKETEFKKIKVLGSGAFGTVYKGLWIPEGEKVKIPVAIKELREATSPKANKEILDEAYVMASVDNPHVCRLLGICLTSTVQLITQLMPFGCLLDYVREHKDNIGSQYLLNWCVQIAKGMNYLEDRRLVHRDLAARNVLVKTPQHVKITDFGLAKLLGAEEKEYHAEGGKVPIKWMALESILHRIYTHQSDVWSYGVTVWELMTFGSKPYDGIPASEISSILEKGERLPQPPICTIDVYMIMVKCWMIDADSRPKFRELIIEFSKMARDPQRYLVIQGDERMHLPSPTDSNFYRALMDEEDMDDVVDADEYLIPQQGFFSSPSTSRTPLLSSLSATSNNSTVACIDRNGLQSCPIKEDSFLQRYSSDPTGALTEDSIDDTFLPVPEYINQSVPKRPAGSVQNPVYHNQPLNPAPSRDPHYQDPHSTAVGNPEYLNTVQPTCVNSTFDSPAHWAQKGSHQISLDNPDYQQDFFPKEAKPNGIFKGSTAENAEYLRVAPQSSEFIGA
Sequence of VEGFR1 kinase (P17948 27-1338): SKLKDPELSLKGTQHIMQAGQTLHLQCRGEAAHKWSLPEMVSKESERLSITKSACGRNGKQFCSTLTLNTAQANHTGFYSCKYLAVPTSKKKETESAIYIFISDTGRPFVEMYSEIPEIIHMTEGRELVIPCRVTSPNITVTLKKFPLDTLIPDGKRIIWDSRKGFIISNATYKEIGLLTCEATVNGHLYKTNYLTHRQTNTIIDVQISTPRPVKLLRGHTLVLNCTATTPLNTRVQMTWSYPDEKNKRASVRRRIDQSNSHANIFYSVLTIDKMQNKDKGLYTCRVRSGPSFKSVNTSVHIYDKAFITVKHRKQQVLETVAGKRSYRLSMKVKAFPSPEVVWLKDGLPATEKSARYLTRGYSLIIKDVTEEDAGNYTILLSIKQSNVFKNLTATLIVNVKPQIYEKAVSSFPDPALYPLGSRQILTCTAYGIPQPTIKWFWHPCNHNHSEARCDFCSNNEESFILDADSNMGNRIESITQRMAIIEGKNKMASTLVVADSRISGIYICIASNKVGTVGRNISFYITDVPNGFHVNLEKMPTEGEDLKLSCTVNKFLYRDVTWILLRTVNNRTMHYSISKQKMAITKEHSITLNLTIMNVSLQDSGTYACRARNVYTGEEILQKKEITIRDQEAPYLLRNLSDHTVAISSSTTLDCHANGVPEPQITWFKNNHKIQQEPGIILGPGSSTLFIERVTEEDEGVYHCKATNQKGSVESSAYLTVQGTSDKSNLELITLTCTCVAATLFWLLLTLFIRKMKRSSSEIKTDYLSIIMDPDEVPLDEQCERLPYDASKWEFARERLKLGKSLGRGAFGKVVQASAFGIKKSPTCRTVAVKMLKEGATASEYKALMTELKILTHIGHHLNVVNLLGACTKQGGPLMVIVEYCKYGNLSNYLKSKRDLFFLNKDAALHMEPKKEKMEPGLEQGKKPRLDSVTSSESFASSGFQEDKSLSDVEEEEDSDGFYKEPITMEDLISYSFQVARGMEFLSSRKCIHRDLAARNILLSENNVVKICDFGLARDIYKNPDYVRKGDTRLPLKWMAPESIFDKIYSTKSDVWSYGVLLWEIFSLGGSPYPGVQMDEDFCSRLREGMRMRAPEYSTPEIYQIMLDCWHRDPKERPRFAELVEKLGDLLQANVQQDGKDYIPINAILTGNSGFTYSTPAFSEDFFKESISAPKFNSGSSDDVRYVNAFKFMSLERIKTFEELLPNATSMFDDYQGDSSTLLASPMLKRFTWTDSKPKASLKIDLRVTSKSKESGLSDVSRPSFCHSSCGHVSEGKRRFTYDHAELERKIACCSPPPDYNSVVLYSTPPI
Sequence of SRC kinase (P12931 whole entry): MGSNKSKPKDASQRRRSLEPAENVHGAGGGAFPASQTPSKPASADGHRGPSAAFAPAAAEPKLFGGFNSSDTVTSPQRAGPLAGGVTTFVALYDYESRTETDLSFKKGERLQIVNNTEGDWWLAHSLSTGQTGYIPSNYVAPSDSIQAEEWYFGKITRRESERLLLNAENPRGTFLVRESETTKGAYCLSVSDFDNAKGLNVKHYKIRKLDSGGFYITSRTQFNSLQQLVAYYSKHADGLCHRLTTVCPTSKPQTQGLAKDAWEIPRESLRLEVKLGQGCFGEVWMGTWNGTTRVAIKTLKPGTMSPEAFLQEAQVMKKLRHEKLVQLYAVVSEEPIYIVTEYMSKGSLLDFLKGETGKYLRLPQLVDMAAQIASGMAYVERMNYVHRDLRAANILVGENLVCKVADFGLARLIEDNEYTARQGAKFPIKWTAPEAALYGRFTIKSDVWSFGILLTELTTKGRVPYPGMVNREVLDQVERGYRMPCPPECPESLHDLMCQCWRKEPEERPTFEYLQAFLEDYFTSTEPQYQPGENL
Sequence of ABL kinase (P00519 whole entry): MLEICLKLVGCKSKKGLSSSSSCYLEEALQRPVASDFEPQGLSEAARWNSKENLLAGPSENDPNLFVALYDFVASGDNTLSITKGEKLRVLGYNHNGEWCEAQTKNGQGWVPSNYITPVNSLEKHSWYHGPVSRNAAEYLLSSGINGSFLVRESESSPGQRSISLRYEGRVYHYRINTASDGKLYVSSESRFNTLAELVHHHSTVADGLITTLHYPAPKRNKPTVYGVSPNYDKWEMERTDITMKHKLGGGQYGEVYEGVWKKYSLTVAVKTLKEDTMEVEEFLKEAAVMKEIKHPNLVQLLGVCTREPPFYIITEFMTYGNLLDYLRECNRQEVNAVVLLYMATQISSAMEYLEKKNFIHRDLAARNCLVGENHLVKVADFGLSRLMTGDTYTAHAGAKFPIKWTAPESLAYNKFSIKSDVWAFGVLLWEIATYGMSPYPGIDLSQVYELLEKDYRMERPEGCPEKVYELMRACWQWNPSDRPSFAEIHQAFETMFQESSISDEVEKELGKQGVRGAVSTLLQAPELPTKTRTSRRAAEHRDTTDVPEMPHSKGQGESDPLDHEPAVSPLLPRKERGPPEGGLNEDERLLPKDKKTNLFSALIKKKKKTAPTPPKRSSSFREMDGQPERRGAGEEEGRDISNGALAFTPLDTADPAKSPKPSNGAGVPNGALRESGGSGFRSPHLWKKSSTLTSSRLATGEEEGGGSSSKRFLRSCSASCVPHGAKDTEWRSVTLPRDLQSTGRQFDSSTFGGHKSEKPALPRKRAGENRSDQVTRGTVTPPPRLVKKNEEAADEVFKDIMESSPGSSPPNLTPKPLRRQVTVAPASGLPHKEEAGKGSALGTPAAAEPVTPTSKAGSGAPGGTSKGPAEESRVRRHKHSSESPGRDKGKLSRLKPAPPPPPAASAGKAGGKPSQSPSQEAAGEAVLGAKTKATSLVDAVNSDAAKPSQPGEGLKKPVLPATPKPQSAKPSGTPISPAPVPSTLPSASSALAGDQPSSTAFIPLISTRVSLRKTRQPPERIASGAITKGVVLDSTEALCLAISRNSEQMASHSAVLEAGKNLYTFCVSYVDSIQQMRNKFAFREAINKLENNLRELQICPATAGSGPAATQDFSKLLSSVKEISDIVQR

IC50 [8] [µM]	IC50 [2] [nM]	IC50 [9] [nM]	IC50 [5] [µM]	IC50 [10] [nM]	IC50 [6] [µM]	IC50 [11] [µM]	Structure (SMILES)	IC50 or EC50 (nM) Nuclei count [1, 12]	HTS % inhibition at 10 μM Nuclei count [1] [%]	IC50 [2, 13] [nM]	inhibition at 10 µM [1] [%]	inhibition at 10 µM [2] [%]	further results
							CO[C@H]1/C=C\C=C(/C)C(=O)NC2=CC(=O)C(NCCN(C)C)=C(C[C@@H](C)C[C@H](OC)[C@H](O)[C@@H](C)/C=C(\C)[C@@H]1OC(N)=O)C2=O [17-DMAG, 17-dimethylaminoethylamino-17-demethoxy-geldanamycin]	N.E.	33	29 ± 3			
							CC(C)[C@H](CO)Nc1nc(Nc2cc(N)cc(Cl)c2)c2ncn(C(C)C)c2n1 [Aminopurvalanol A, aminopurvalanol A]	N.E.^*	40	910 ± 400			
							CCN(CC)CC1CCN(c2ncc3ncnc(Nc4ccc(F)c(Cl)c4)c3n2)CC1.Cl.Cl [BIBU 1361]	N.E.	3	38 ± 7			IC50 [3]: 3 nM
							C[C@H]1C[C@H]2[C@@H]3CCC4=CC(=O)C=C[C@]4(C)[C@@]3(Cl)[C@@H](O)C[C@]2(C)[C@@]1(O)C(=O)CO [Beclomethasone, beclomethasone]		16				IC50 or EC50 (nM) Nuclei count [1, 14]: N.E.; Luminescence ADP kinase assay IC50 EGFR [4]: no inhibitory effects; EC50 ([2]; activators of granule formation, dose response up to 10 μM, ±standard deviation): 42 ± 7 nM; Luminescence ADP kinase assay IC50 SRC [5]: no inhibitory effects; Luminescence ADP kinase assay IC50 VEGFR1 [6]: no inhibitory effects; Luminescence ADP kinase assay IC50 ABL [7]: no inhibitory effects
							CCc1cc(-c2n[nH]c(C)c2-c2ccc3c(c2)OCCO3)c(O)cc1O [CCT 018159]						Inhibition of granule formation in dose response ([2]; at 5 and 10 μM): partial inhibition
							COC(=O)/C=C/c1cc(O)ccc1O [Erbstatin analog]	N.E.^*	2				Alamar Blue viability assay IC50 A549 [8]: only partial inhibition; Luminescence ADP kinase assay IC50 EGFR [4]: inactive; IC50 or EC50 (nM) Granule count [2, 13]: N.E.; Alamar Blue viability assay IC50 HCC4011 [9]: only partial inhibition; Luminescence ADP kinase assay IC50 SRC [5]: inactive; Alamar Blue viability assay IC50 H3255 [10]: only partial inhibition; Luminescence ADP kinase assay IC50 VEGFR1 [6]: inactive; Luminescence ADP kinase assay IC50 ABL [7]: inactive; Alamar Blue viability assay IC50 H2030 [11]: only partial inhibition
							C#Cc1cccc(Nc2ncnc3cc(OCCOC)c(OCCOC)cc23)c1 [Erlotinib, erlotinib]				36		IC50 or EC50 (nM) Nuclei count [1]: N.E.
> 10		> 10000	> 10	> 10000	> 10	> 10	CC1(C)O[C@@H]2C[C@H]3[C@@H]4C[C@H](F)C5=CC(=O)CC[C@]5(C)[C@H]4[C@@H](O)C[C@]3(C)[C@]2(C(=O)CO)O1 [Flurandrenolide, flurandrenolide]				7	-165	Alamar Blue viability assay IC50 A549 [8]: inactive; IC50 or EC50 (nM) Nuclei count [1, 14]: N.E.; IC50 [4]: > 10 µM; Luminescence ADP kinase assay IC50 EGFR [4]: no inhibitory effects; EC50 [2]: 23 ± 20 nM; Alamar Blue viability assay IC50 HCC4011 [9]: inactive; Luminescence ADP kinase assay IC50 SRC [5]: no inhibitory effects; Alamar Blue viability assay IC50 H3255 [10]: inactive; Luminescence ADP kinase assay IC50 VEGFR1 [6]: no inhibitory effects; Alamar Blue viability assay IC50 H2030 [11]: inactive
							CN(C)c1cc2c(Nc3ccc4c(cnn4Cc4ccccc4)c3)ncnc2cn1 [GW 2974]	N.E.	18	1300			
> 10	2000	2000 ± 200	> 10	960 ± 60	> 10	> 10	CS(=O)(=O)CCNCc1nc(-c2ccc3ncnc(Nc4ccc(OCc5cccc(F)c5)c(Cl)c4)c3c2)cs1 [GW 583340]	N.E.			26	94	IC50 [4]: 1.3 ± 0.1 µM; IC50 [7]: > 10 µM
> 10	590 ± 30	1500 ± 100		1200 ± 100		> 10	CS(=O)(=O)CCNCc1ccc(-c2ccc3ncnc(Nc4ccc(OCc5cccc(F)c5)c(Cl)c4)c3c2)o1 [Lapatinib, lapatinib]				0	91	IC50 or EC50 (nM) Nuclei count [1]: N.E.
	1300						CO[C@@H]1[C@H](N(C)C(=O)c2ccccc2)C[C@H]2O[C@]1(C)n1c3ccccc3c3c4c(c5c6ccccc6n2c5c31)C(=O)NC4 [PKC 412]						
> 10	65 ± 8	33 ± 7	2.6 ± 1.3	49 ± 1	> 10	> 10	COc1cc2ncnc(Nc3cccc(Cl)c3)c2cc1OC [Tyrphostin AG 1478]	N.E.			12	94	IC50 [7]: 2 ± 0.6 µM
							COc1cc2ncnc(Nc3ccc(Cl)cc3F)c2cc1OC [ZM-306416]	N.E.	21	670 ± 200			Alamar Blue viability assay IC50 A549 [8]: inactive; Alamar Blue viability assay IC50 H2030 [11]: inactive

Structure (SMILES)	IC50 [8] [µM]	IC50 [2] [nM]	IC50 [9] [nM]	IC50 [5] [µM]	IC50 [10] [nM]	IC50 [6] [µM]	IC50 [11] [µM]	IC50 or EC50 (nM) Nuclei count [1, 12]	HTS % inhibition at 10 μM Nuclei count [1] [%]	IC50 [2, 13] [nM]	inhibition at 10 µM [1] [%]	inhibition at 10 µM [2] [%]	further results
CC[C@@]1(O)C(=O)OCc2c1cc1n(c2=O)Cc2cc3ccccc3nc2-1 [Camptothecin, camptothecin]	0.035 ± 0.05	720 ± 100	290 ± 40	> 10	390 ± 50	> 10	0.017 ± 0.005	N.E.^*			40	81	IC50 [4]: > 10 µM; IC50 [7]: > 10 µM
COc1cc2ncnc(Nc3cccc(Br)c3)c2cc1OC [PD 153035]	> 10	91 ± 20	48 ± 12	> 10	72 ± 12	> 10	> 10				12	97	IC50 or EC50 (nM) Nuclei count [1]: N.E.
